44 molecules from patent US9856216B2, “Compounds as TNIK, IKKε and TBK1 inhibitors and pharmaceutical composition comprising same” (GREEN CROSS CORPORATION, priority 2015, dated 2018) can be followed below.

This assay concerns the target T1, TNIK (Homo sapiens, UniProt Q9UKE5).
T1 construct: purchased Promega V4158
The experiment in a line: ADP-Glo Kinase Assay, inhibition activity on TNIK. In kind it is biochemical. The following applies: for IC50: read-out: TNIK. On the procedure: The inhibition activities on TNIK, IKKε and TBK1 were measured by a luminometer, TNIK/IKKε/TBK1 Kinase Enzyme System (Promega, Ca# V4158; Invitrogen, PR8031B, Promega, Ca# V3991) and ADP-Glo Kinase Assay using ADP-Glo™ Kinase Analysis Kit (Promega, Ca# V9101) and a kinase reaction buffer [40 mM Tris(pH 7.5), 20 mM MgCl2, 0.1 mg/mL BSA] in accordance with the manufacturer's protocol.
(In general: ADP-Glo turns the ADP formed in a reaction into a luminescent signal.)

T1 sequence (Q9UKE5 1-367 limits assumed): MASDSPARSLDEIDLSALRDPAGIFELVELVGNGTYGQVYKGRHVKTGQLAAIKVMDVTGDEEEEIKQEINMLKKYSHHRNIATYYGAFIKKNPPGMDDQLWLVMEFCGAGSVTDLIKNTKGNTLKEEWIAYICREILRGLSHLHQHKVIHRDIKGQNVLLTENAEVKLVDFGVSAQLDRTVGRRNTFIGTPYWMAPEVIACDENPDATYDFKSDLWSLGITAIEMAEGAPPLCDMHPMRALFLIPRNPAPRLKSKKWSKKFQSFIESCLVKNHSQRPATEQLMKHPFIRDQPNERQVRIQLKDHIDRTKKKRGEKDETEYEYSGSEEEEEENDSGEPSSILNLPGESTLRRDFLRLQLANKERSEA

As to `O=C(Nc1ccc(-c2cncnc2)c2c1C(=O)NC2)c1ccccc1` [Example 154, N-(3-oxo-7-(pyrimidin-5-yl)isoindolin-4-yl)benzamide], the IC50 is above 20 µM. In the case of `O=C(Nc1ccc(-c2ccccc2)c2c1C(=O)NC2)c1sccc1Cl` [Example 155, 3-Chloro-N-(3-oxo-7-phenylisoindolin-4-yl)thiophene-2-carboxamide], the IC50 came out at 2.29 µM. Consider `O=C(Nc1ccc(-c2ccccc2)c2c1C(=O)NC2)c1ccc(Br)s1` [Example 156, 5-Bromo-N-(3-oxo-7-phenylisoindolin-4-yl)thiophene-2-carboxamide], for which the IC50 is 2.86 µM.

On to `O=C(Nc1ccc(-c2ccccc2)c2c1C(=O)NC2)c1sccc1Br` [Example 157, 3-Bromo-N-(3-oxo-7-phenylisoindolin-4-yl)thiophene-2-carboxamide], for which the IC50 is 3.4 µM. Regarding `O=C(Nc1ccc(-c2ccco2)c2c1C(=O)NC2)c1ccc(F)cc1` [Example 158, 4-Fluoro-N-(7-(furan-2-yl)-3-oxoisoindolin-4-yl)benzamide], the IC50 was 1.27 µM. `CCCCC(=O)Nc1ccc(-c2ccccc2)c2c1C(=O)NC2` [Example 159, N-(3-oxo-7-phenylisoindolin-4-yl)pentanamide]: the IC50 came to 1.8 µM.

As for `CC(=O)Nc1ccc(-c2ccccc2)c2c1C(=O)NC2` [Example 160, N-(3-oxo-7-phenylisoindolin-4-yl)acetamide], the IC50 stood at 1.1 µM. On to `CS(=O)(=O)c1ccc(-c2ccc(NC(=O)c3ccccc3)c3c2CNC3=O)cc1` [Example 167, N-(7-(4-(methylsulfonyl)phenyl)-3-oxoisoindolin-4-yl) benzamide], for which the IC50 amounted to 9.8 µM. The same measure, in the same setting: next, `CS(=O)(=O)c1cccc(-c2ccc(NC(=O)c3ccccc3)c3c2CNC3=O)c1` [Example 168, N-(7-(3-(methylsulfonyl)phenyl)-3-oxoisoindolin-4-yl) benzamide]: above 20 µM. For the molecule `CC(=O)Nc1cccc(-c2ccc(NC(=O)c3ccccc3)c3c2CNC3=O)c1` [Example 169, N-(7-(3-acetamidophenyl)-3-oxoisoindolin-4-yl)benzamide], the IC50 worked out at 4.2 µM.

On to `O=C(Nc1ccc(-c2ccccc2)c2c1C(=O)NC2)c1ccc(Cl)s1` [Example 170, 5-Chloro-N-(3-oxo-7-phenylisoindolin-4-yl)thiophene-2-carboxamide], for which the IC50 is 3.52 µM. For `COc1cccc(-c2ccc(NC(=O)c3ccccc3)c3c2CNC3=O)c1OC` [Example 171, N-(7-(2,3-dimethoxyphenyl)-3-oxoisoindolin-4-yl)benzamide], the IC50 came out at 0.057 µM. Still for that read-out and setting: under `COc1cc(OC)cc(-c2ccc(NC(=O)c3ccccc3)c3c2CNC3=O)c1` [Example 172, N-(7-(3,5-dimethoxyphenyl)-3-oxoisoindolin-4-yl)benzamide] stands above 20 µM; under `O=C(Nc1ccc(C2CC2)c2c1C(=O)NC2)c1ccccc1` [Example 173, N-(7-cyclopropyl-3-oxoisoindolin-4-yl)benzamide], 0.75 µM; under `O=C(Nc1ccc(-c2ccccc2Cl)c2c1C(=O)NC2)c1ccccc1` [Example 174, N-(7-(2-chlorophenyl)-3-oxoisoindolin-4-yl)benzamide], above 20 µM. As to `COc1ccc(-c2ccc(NC(=O)c3ccccc3)c3c2CNC3=O)c(OC)c1` [Example 175, N-(7-(2,4-dimethoxyphenyl)-3-oxoisoindolin-4-yl)benzamide], the IC50 amounted to 3 µM. Take `COc1ccc(-c2ccc(NC(=O)c3ccccc3)c3c2CNC3=O)cc1OC` [Example 176, N-(7-(3,4-dimethoxyphenyl)-3-oxoisoindolin-4-yl)benzamide]: the IC50 is above 20 µM. Consider `CCOc1cccc(-c2ccc(NC(=O)c3ccccc3)c3c2CNC3=O)c1` [Example 177, N-(7-(3-ethoxyphenyl)-3-oxoisoindolin-4-yl)benzamide], for which the IC50 amounted to 8.1 µM. On to `COc1ccc(OC)c(-c2ccc(NC(=O)c3ccccc3)c3c2CNC3=O)c1` [Example 178, N-(7-(2,5-dimethoxyphenyl)-3-oxoisoindolin-4-yl)benzamide], for which the IC50 was above 20 µM. Take `O=C(Nc1ccc(-c2ccc(Cl)cc2)c2c1C(=O)NC2)c1ccccc1` [Example 179, N-(7-(4-chlorophenyl)-3-oxoisoindolin-4-yl)benzamide]: the IC50 was above 20 µM. In the case of `O=C(Nc1ccc(-c2cccc(Cl)c2)c2c1C(=O)NC2)c1ccccc1` [Example 180, N-(7-(3-chlorophenyl)-3-oxoisoindolin-4-yl)benzamide], the IC50 amounted to 13.7 µM.

As to `CCOc1ccc(-c2ccc(NC(=O)c3ccccc3)c3c2CNC3=O)cc1` [Example 181, N-(7-(4-ethoxyphenyl)-3-oxoisoindolin-4-yl)benzamide], the IC50 is above 20 µM. As for `CCOc1ccccc1-c1ccc(NC(=O)c2ccccc2)c2c1CNC2=O` [Example 182, N-(7-(2-ethoxyphenyl)-3-oxoisoindolin-4-yl)benzamide], the IC50 came to 2.8 µM.

Regarding `N#Cc1ccccc1-c1ccc(NC(=O)c2ccccc2)c2c1CNC2=O` [Example 183, N-(7-(2-cyanophenyl)-3-oxoisoindolin-4-yl)benzamide], the IC50 came to 1.7 µM.

As for `CCCCOc1ccc(-c2ccc(NC(=O)c3ccccc3)c3c2CNC3=O)cc1` [Example 184, N-(7-(4-butoxyphenyl)-3-oxoisoindolin-4-yl)benzamide], the IC50 was above 20 µM. As for `CN(C)c1ccccc1-c1ccc(NC(=O)c2ccccc2)c2c1CNC2=O` [Example 185, N-(7-(2-(dimethylamino)phenyl)-3-oxoisoindolin-4-yl) benzamide], the IC50 came out at 2.8 µM.

On to `O=C(Nc1ccc(-c2ccc(OC(F)(F)F)cc2)c2c1C(=O)NC2)c1ccccc1` [Example 186, N-(3-oxo-7-(4-(trifluoromethoxy)phenyl)isoindolin-4-yl) benzamide], for which the IC50 is above 20 µM. Consider `COc1cccc(OC)c1-c1ccc(NC(=O)c2ccccc2)c2c1CNC2=O` [Example 187, N-(7-(2,6-dimethoxyphenyl)-3-oxoisoindolin-4-yl)benzamide], for which the IC50 was found to be 2.2 µM. With `CCCc1ccc(-c2ccc(NC(=O)c3ccccc3)c3c2CNC3=O)cc1` [Example 188, N-(3-oxo-7-(4-propylphenyl)isoindolin-4-yl)benzamide], the IC50 is above 20 µM. Consider `O=C(Nc1ccc(-c2cccc(O)c2O)c2c1C(=O)NC2)c1ccc(F)cc1` [Example 189, N-(7-(2,3-dihydroxyphenyl)-3-oxoisoindolin-4-yl)-4-fluorobenzamide], for which the “TNIK (μM)” value is given as “Insoluble”.

Turning to `COc1cccc(-c2ccc(NC(=O)c3ccc(F)cc3)c3c2CNC3=O)c1O` [Example 190, 4-Fluoro-N-(7-(2-hydroxy-3-methoxyphenyl)-3-oxoisoindolin-4-yl)benzamide], the IC50 turned out to be 0.52 µM. As for `O=C(Nc1ccc(-c2cccs2)c2c1C(=O)NC2)c1ccc(F)cc1` [Example 191, 4-Fluoro-N-(3-oxo-7-(thiophen-2-yl)isoindolin-4-yl)benzamide], the IC50 was 13.3 µM. As to `Cc1ccc(C(=O)Nc2ccc(-c3ccccc3)c3c2C(=O)NC3)o1` [Example 192, 5-Methyl-N-(3-oxo-7-phenylisoindolin-4-yl)furan-2-carboxamide], the IC50 stood at 0.73 µM. With `O=C(Nc1ccc(-c2cccc3ncoc23)c2c1C(=O)NC2)c1ccc(F)cc1` [Example 193, N-(7-(benzo[d]oxazol-7-yl)-3-oxoisoindolin-4-yl)-4-fluorobenzamide], the IC50 was 1.45 µM. For the molecule `Cc1nc2cccc(-c3ccc(NC(=O)c4ccc(F)cc4)c4c3CNC4=O)c2o1` [Example 194, 4-Fluoro-N-(7-(2-methylbenzo[d]oxazol-7-yl)-3-oxoisoindolin-4-yl)benzamide], the “TNIK (μM)” value is “Insoluble”.

Regarding `O=C(Nc1ccc(-c2ccc(CN3CCCC3)s2)c2c1C(=O)NC2)c1ccccc1` [Example 195, N-(3-oxo-7-(5-(pyrrolidin-1-ylmethyl)thiophen-2-yl)isoindolin-4-yl)benzamide], the IC50 is above 20 µM. As to `O=C(Nc1ccc(-c2ccc(CN3CCCCC3)s2)c2c1C(=O)NC2)c1ccccc1` [Example 196, N-(3-oxo-7-(5-(piperidin-1-ylmethyl)thiophen-2-yl)isoindolin-4-yl)benzamide], the IC50 was 17.7 µM. As to `O=C(Nc1ccc(-c2ccc(CN3CCOCC3)s2)c2c1C(=O)NC2)c1ccccc1` [Example 197, N-(7-(5-(morpholinomethyl)thiophen-2-yl)-3-oxoisoindolin-4-yl)benzamide], the IC50 was above 20 µM.

With `CC(C)(C)OC(=O)N1CCN(Cc2ccc(-c3ccc(NC(=O)c4ccccc4)c4c3CNC4=O)s2)CC1` [Example 198, tert-Butyl 4-((5-(7-benzamido-1-oxoisoindolin-4-yl)thiophen-2-yl)methyl)piperazine-1-carboxylate], the IC50 was above 20 µM. On to `O=C(Nc1ccc(-c2ccc(F)nc2)c2c1C(=O)NC2)c1ccccc1` [Example 199, N-(7-(6-fluoropyridin-3-yl)-3-oxoisoindolin-4-yl)benzamide], for which the “TNIK (μM)” value is “Insoluble”. Regarding `COc1ccc(-c2ccc(NC(=O)c3ccccc3)c3c2CNC3=O)cn1` [Example 200, N-(7-(6-methoxypyridin-3-yl)-3-oxoisoindolin-4-yl)benzamide], the “TNIK (μM)” value is on record as “Insoluble”. Take `O=C(Nc1ccc(-c2ccccc2)c2c1C(=O)NC2)c1ccccc1Cl` [Example 201, 2-Chloro-N-(3-oxo-7-phenylisoindolin-4-yl)benzamide]: the IC50 turned out to be 15.2 µM. For the molecule `COc1cccc(C(=O)Nc2ccc(-c3ccccc3)c3c2C(=O)NC3)c1` [Example 202, 3-Methoxy-N-(3-oxo-7-phenylisoindolin-4-yl)benzamide], the IC50 is above 20 µM. In the case of `O=C(Nc1ccc(-c2ccccc2)c2c1C(=O)NC2)c1cccs1` [Example 203, N-(3-oxo-7-phenylisoindolin-4-yl)thiophene-2-carboxamide], the IC50 was 0.35 µM.
